Measured values from patent US8637665B2, “Pyrrolo[2,L-C][L,4]benzodiazepine-benzothiazole or benzoxazole conjugates linked through piperazine moiety and process for the preparation thereof” (priority 2010, dated 2014).

Columns and labels:
[1] = system: KB (oral cancer) cell line; experiment: In vitro anticancer activity, SRB assay, KB; assay type: cell-based, human; details: Homo sapiens, 48 h; for GI50: read-out: GI50 KB, 48 h drug exposure, SRB, mean of three determinations; for CC50: read-out: LC50 KB, 50% cell death, 48 h drug exposure, SRB
Method: (§1) Anticancer activity: In vitro biological activity studies were carried out at the Advance Center for Treatment Research & Education in Cancer (ACTREC), Navi Mumbai.
(§2) The compounds were evaluated for in vitro anticancer activity against eight tumour cells lines derived from seven cancer types (non-small-cell lung, colon, oral, cervix, ovarian, prostate, and breast cancer) as shown in Table 2. For each compound, dose response curves for each cell line were measured at a minimum of five concentrations at 10 fold dilutions. A protocol of 48 h continuous drug exposure was used and a sulforhodamine B (SRB) protein assay was used to estimate cell viability or growth. The concentration causing 50% cell growth inhibition (GI50) and 50% cell death (LC50, −50% growth) compared with the control was calculated. Compounds 9a-9l have been evaluated for their in vitro cytotoxicity in eight cell lines from seven human cancer types of lung (Hop-62, A-549) colon (COLO-205) cervix (Si—Ha), ovary (A-2780), prostate (PC3) breast (MCF7), oral (KB). The results are expressed as percent of cell growth determined relative to that of untreated control cells (Table-8 and table-9).

[2] = system: Colo 205 (colon cancer) cell line; experiment: cells; assay type: cell-based; details: Homo sapiens, COLO 205, 48 h; for GI50: read-out: GI50 Colo 205, 48 h drug exposure, SRB, mean of three determinations; for CC50: read-out: LC50 Colo 205
Method: as §1, §2

[3] = system: MCF 7 (breast cancer) cell line; experiment: cells; assay type: cell-based; details: Homo sapiens, MCF7, 48 h; for GI50: read-out: GI50 MCF 7; for LC50 (concentration causing 50% cell death): read-out: LC50 MCF 7, 50% cell death, 48 h drug exposure, SRB
Method: as §1, §2

[4] = system: SiHa (cervix cancer) cell line; experiment: cells; assay type: cell-based; details: Homo sapiens, SiHa, 48 h; for GI50: read-out: GI50 SiHa, 48 h drug exposure, SRB, mean of three determinations; for LC50 (concentration causing 50% cell death): read-out: LC50 SiHa, 50% cell death, 48 h drug exposure, SRB
Method: as §1, §2

[5] = system: A 549 (lung cancer) cell line; experiment: cells; assay type: cell-based; details: Homo sapiens, A549, 48 h; for GI50: read-out: GI50 A 549, 48 h drug exposure, SRB, mean of three determinations; for CC50: read-out: LC50 A 549, 50% cell death, 48 h drug exposure, SRB
Method: as §1, §2

[6] = system: PC 3 (prostate cancer) cell line; experiment: cells; assay type: cell-based; details: Homo sapiens, 48 h; for GI50: read-out: GI50 PC 3; for CC50: read-out: LC50 Pc 3, 50% cell death, 48 h drug exposure, SRB
Method: as §1, §2

[7] = system: A 2780 (ovary cancer) cell line; experiment: cells; assay type: cell-based; details: Homo sapiens, A2780, 48 h; for GI50: read-out: GI50 A 2780, 48 h drug exposure, SRB, mean of three determinations; for CC50: read-out: LC50 A 2780, 50% cell death, 48 h drug exposure, SRB
Method: as §1, §2

[8] = system: HOP 62 (lung cancer) cell line; experiment: cells; assay type: cell-based; details: Homo sapiens, HOP-62, 48 h; for GI50: read-out: GI50 HOP 62, 48 h drug exposure, SRB, mean of three determinations; for LC50: read-out: LC50 HOP 62, 50% cell death, 48 h drug exposure, SRB
Method: as §1, §2

[9] = system: duplex-form calf thymus DNA (CT-DNA); experiment: Thermal denaturation studies with calf thymus DNA (DNA binding affinity); details: [PBD]:[DNA] 1:5, CT-DNA 100 μM, ligand 20 μM, pH 7.00
Method: Compounds have been subjected to thermal denaturation studies with duplex-form calf thymus DNA (CT-DNA) using an modification of a reported procedure (Newman, M. S. Carcinog-compr. Surv. 1976,1, 203; (b) Hecht, S. S.; Loy, M.; Hoffman, Carcinog-compr. Surv. 1976, 1, 325). Working solutions in aqueous buffer (10 mM NaH2PO4/Na2HPO4, 1 mM Na2EDTA, pH 7.00+0.01) containing CT-DNA (100 μm in phosphate) and the PBD (20 μm) have been prepared by addition of concentrated PBD solutions in DMSO to obtain a fixed [PBD]/[DNA] molar ratio of 1:5. The DNA-PBD solutions have been incubated at 37° C. for 0 and 18 h prior to analysis. Samples have been monitored at 260 using a Beckman DU-800 spectrophotometer fitted with high performance temperature controller, and heated at 1° C. min^−1 in the 40-110° C. range. DNA helix→coil transition temperatures (Tm) have been obtained from the maxima in the d(A260)/dT derivative plots. Drug-induced alterations in DNA melting behavior are given by: ΔTm=Tm(DNA+PBD)−Tm(DNA alone), where the Tm value for the PBD-free CT-DNA is 69.1±0.01.
The DNA binding activity for these novel C8-linked benzothiazole, benzoxazole-PBD hybrids has been examined by thermal denaturation studies using calf thymus (CT) DNA. […] The data for the compounds 9a-n is included in Table 7 for comparison.

[10] = system: eight tumour cells lines derived from seven cancer types; experiment: In vitro anticancer activity, SRB assay, panel of eight cell lines; assay type: cell-based; details: Homo sapiens, range over the eight cell lines per compound; read-out: GI50 range against cancer cell lines
Method: as §1, §2

| SMILES | GI50 [1] | CC50 [1] | GI50 [2] | CC50 [2] | GI50 [3] | LC50 (concentration causing 50% cell death) [3] | GI50 [4] | LC50 (concentration causing 50% cell death) [4] | GI50 [5] | CC50 [5] | GI50 [6] | CC50 [6] | GI50 [7] | CC50 [7] | GI50 [8] | LC50 [8] | ΔTm after incubation at 37° C. for 0 h [9] | ΔTm after incubation at 37° C. for 18 h [9] | GI50 [10] |
| --- | --- | --- | --- | --- | --- | --- | --- | --- | --- | --- | --- | --- | --- | --- | --- | --- | --- | --- | --- |
| COc1cc2c(cc1OCCCN1CCN(CCCOc3cccc(-c4nc5ccccc5s4)c3)CC1)N=C[C@@H]1CCCN1C2=O [Compound 9d, 7-Methoxy-8-[3-(4-{3-[3(1,3-benzothiazol-2-yl)-phenoxy]propyl}piperazin-1-yl)propyl]oxy-(11aS)-1,2,3,11a-tetrahydro-5H-pyrrolo[2,1-c][1,4]benzodiazepin-5-one] | 110 nM | 2300 nM | 110 nM | > 100000 nM | 10 nM | 2100 nM | 120 nM | 26000 nM | < 10 nM | > 100000 nM | < 10 nM | 28000 nM | 99 nM | 2400 nM | < 10 nM | 27000 nM | 11.2 °C | 11.5 °C | ≤ 120 nM |
| COc1cc2c(cc1OCCCCN1CCN(CCCCOc3ccc(-c4nc5ccc(F)cc5s4)cc3)CC1)N=C[C@@H]1CCCN1C2=O [Compound 9g, 7-Methoxy-8-[4-(4-{4-[4(6-fluoro-1,3-benzothiazol-2-yl)-phenoxy]butyl}piperazin-1-yl)butyl]oxy-(11aS)-1,2,3,11a-tetrahydro-5H-pyrrolo[2,1-c][1,4]benzodiazepin-5-one] | 160 nM | > 100000 nM | 100 nM | > 100000 nM | 140 nM | 2400 nM | 168 nM | 311 nM | < 10 nM | > 100000 nM | 160 nM | 31000 nM | 147 nM | 2250 nM | 160 nM | > 100000 nM | 12.3 °C | 12.6 °C | ≤ 168 nM |
| COc1cc2c(cc1OCCCN1CCN(CCCOc3ccc(-c4nc5ccccc5o4)cc3)CC1)N=C[C@@H]1CCCN1C2=O [Compound 9i] | < 10 nM | 28000 nM | < 10 nM | > 100000 nM | < 10 nM | 150 nM | 117 nM | 28500 nM | < 10 nM | > 100000 nM | < 10 nM | 230 nM | 80 nM | 2250 nM | 110 nM | 27000 nM | 9.5 °C | 9.7 °C | ≤ 117 nM |
| COc1cc(-c2nc3ccccc3o2)ccc1OCCCN1CCN(CCCOc2cc3c(cc2OC)C(=O)N2CCC[C@H]2C=N3)CC1 [Compound 9j] | < 10 nM | 200 nM | 110 nM | > 100000 nM | < 10 nM | < 10 nM | < 10 nM | 28000 nM | < 10 nM | > 100000 nM | < 10 nM | 2500 nM | < 10 nM | 139 nM | < 10 nM | 2300 nM | 10.1 °C | 10.3 °C | ≤ 110 nM |
